From ChEMBL document CHEMBL2384987, “Metabolites from Microcystis aeruginosa bloom material collected at a water reservoir near Kibbutz Hafetz Haim, Israel” (J Nat Prod, 2013) come the findings set out here.

Experiment [1] addresses T1, Trypsin (Homo sapiens, UniProt P07477+P07478+P35030). The experiment can be described thus: Inhibition of trypsin (unknown origin) at 45.5 uM. The experiment is classed as protein assay.
Experiment [2] addresses Prothrombin (Homo sapiens) (UniProt P00734). Nature of the experiment: Inhibition of thrombin (unknown origin) at 45.5 uM.
The nature of experiment [3]: Inhibition of elastase (unknown origin). On the set-up: species or system Homo sapiens.
A short description of experiment [4]: Inhibition of chymotrypsin (unknown origin). The arrangement: species or system Homo sapiens.
Experiment [5] addresses T1, Trypsin. The experiment can be described thus: Inhibition of trypsin (unknown origin). The experiment is classed as protein assay.

Active and inactive are the calls of the source. The calls are words filed in the database; no cut-off is given here. *1 amine or outer side, *2 acyl side, *3 side chain or, on linkers, in order; H or OH if unused. Where a SMILES comes first, the peptide text is derived from it. Bridges are numbered along the chain shown (N, C = ends). [ ]: non-standard residue; d: D form. The star is where a group is joined. Propanoyl(2R-OH,3-(4-HOPh)) = O=C([C@H](O)Cc1ccc(O)cc1)*; X1 = CO[C@@H]1CC[C@H](C(=O)[*:2])N1[*:1]; NMeF = CN[C@@H](Cc1ccccc1)C(=O)O

Consider `CC(C)C[C@@H]1NC(=O)[C@@H](NC(=O)[C@H](CC(N)=O)NC(=O)[C@H](O)Cc2ccc(O)cc2)[C@@H](C)OC(=O)[C@H](C(C)C)NC(=O)[C@H](Cc2ccccc2)N(C)C(=O)[C@H](CC(C)C)N2C(=O)[C@H](CC[C@H]2O)NC1=O`, for which the inhibition result (at Trypsin [1]; in experiment [2]) was “inactive” in each case. Moreover, the IC50 in experiment [3] amounted to 17.6 µM; in experiment [4], 4.3 µM.

On Trypsin [5], `CC(=O)O[C@@H]1CC[C@@H]2C[C@H](C(N)=O)N(C(=O)[C@@H](Cc3ccc(O)cc3)NC(=O)[C@@H](O)Cc3ccc(O)cc3)[C@@H]2C1` yielded an IC50 of 45.5 µM.

As to `CC(C)C[C@@H]1NC(=O)[C@@H](NC(=O)[C@H](CC(N)=O)NC(=O)[C@H](O)Cc2ccc(O)cc2)[C@@H](C)OC(=O)[C@H](C(C)C)NC(=O)[C@H](Cc2ccccc2)N(C)C(=O)[C@H](CC(C)C)N2C=CC[C@H](NC1=O)C2=O`, the inhibition result (at Trypsin [1]; in experiment [2]) was “inactive” each time. In addition, the figures for the IC50 in experiment [3] and in experiment [4] were 55.5 µM and 48.5 µM, respectively.

On to `CO[C@@H]1CC[C@@H]2C(=O)N[C@@H](CC(C)C)C(=O)N(C)[C@@H](Cc3ccccc3)C(=O)N[C@@H](C(C)C)C(=O)O[C@H](C)[C@H](NC(=O)[C@H](CC(N)=O)NC(=O)[C@H](O)Cc3ccc(O)cc3)C(=O)N[C@@H](CC(C)C)C(=O)N21` ({Propanoyl(2R-OH,3-(4-HOPh))}-NTL[X1]L[NMeF]V; ester 2-C), for which the inhibition result (at Trypsin [1]; in experiment [2]) was “inactive” throughout. In addition, the IC50 amounted to 16.9 µM in experiment [3] and 45.9 µM in experiment [4].

In general, IC50 refers to the concentration needed to halve the response being measured. Low readings indicate higher potency, high ones lower potency.
